# Calls of active or inactive are those of the source. No cut-off for these calls is given here.
# Legend:
# MC-38 [1] = test: Antitumor immunity against mouse MC-38 cells implanted in syngenic C57BL/6J mouse model assessed as increase in TNF-alpha expression at 50 mg/kg, IG administered twice daily for 14 days; type: functional, organism-based; settings: time 14.0 day
# MC-38 [2] = test: Antitumor immunity against mouse MC-38 cells implanted in syngenic C57BL/6J mouse model assessed as upregulation of PD-L1 expression in macrophages at 50 mg/kg, IG administered twice daily for 14 days by flow cytometric analysis; type: functional, organism-based; settings: time 14.0 day
# MC-38 [3] = test: Antitumor immunity against mouse MC-38 cells implanted in syngenic C57BL/6J mouse model assessed as inhibition of M2 polarization of tumor associated macrophage in tumor at 50 mg/kg, IG administered twice daily for 14 days by flow cytometric analysis; type: functional, organism-based; settings: time 14.0 day
# MC-38 [4] = test: Antitumor immunity against mouse MC-38 cells implanted in syngenic C57BL/6J mouse model assessed as increase in Ki67 positive CD8+ T cells at 50 mg/kg, IG administered twice daily for 14 days by Ki67 staining based flow cytometric analysis; type: functional, organism-based; settings: time 14.0 day
# [5] = Toxicity in C57BL/6J syngenic mouse implanted with mouse MC-38 cells assessed as effect on body weight at 50 mg/kg, IG administered twice daily for 14 days; type: organism-based; settings: in vivo, po, 336 h, time 14 day
# MC-38 [6] = test: Antitumor immunity against mouse MC-38 cells implanted in syngenic C57BL/6J mouse model assessed as increase in CD45+ cell proportion in tumor at 50 mg/kg, IG administered twice daily for 14 days by flow cytometric analysis; type: functional, organism-based; settings: time 14.0 day
# MC-38 [7] = test: Antitumor immunity against mouse MC-38 cells implanted in syngenic C57BL/6J mouse model assessed as increase in M1 tumor associated macrophage proportion in spleen at 50 mg/kg, IG administered twice daily for 14 days by flow cytometric analysis; type: functional, organism-based; settings: time 14.0 day
# Jurkat T [8] = test: Activation of TCR signaling in human Jurkat T cells assessed as increase in LCK phosphorylation preincubated with compound for 1 hrs followed by anti-CD3 stimulation and measured after 45 mins by immunoblot analysis; type: cell-based; settings: filed as activator, time 105.0 min
# [9] = Upregulation of PD-L1 expression in mouse MC-38 cells at 20 uM incubated for 48 hrs by flow cytometric analysis (reference value: 23.3%); type: functional
# Jurkat T [10] = test: Activation of TCR signaling in human Jurkat T cells assessed as increase in ERK phosphorylation preincubated with compound for 1 hrs followed by anti-CD3 stimulation and measured after 45 mins by immunoblot analysis; type: cell-based; settings: filed as activator, time 105.0 min
# [11] = Upregulation of PD-L1 expression in mouse MC-38 cells at 10 uM incubated for 48 hrs by flow cytometric analysis (reference value: 23.3%); type: functional
# MC-38 [12] = test: Antitumor immunity against mouse MC-38 cells implanted in syngenic C57BL/6J mouse model assessed as increase in tumor infiltration of CD8+ T cells at 50 mg/kg, IG administered twice daily for 14 days by DAPI staining based immunofluorescence analysis; type: functional, organism-based; settings: time 14.0 day
# MC-38 [13] = test: Antitumor immunity against mouse MC-38 cells implanted in syngenic C57BL/6J mouse model assessed as upregulation of PD-L1 expression in dendritic cells at 50 mg/kg, IG administered twice daily for 14 days by flow cytometric analysis; type: functional, organism-based; settings: time 14.0 day
# MC-38 [14] = test: Antitumor activity against mouse MC-38 cells implanted in syngenic C57BL/6J mouse model at 50 mg/kg, IG administered twice daily for 14 days by H&E staining based analysis; type: functional, organism-based; settings: time 14.0 day
# MC-38 [15] = test: Antitumor immunity against mouse MC-38 cells implanted in syngenic C57BL/6J mouse model assessed as inhibition of M2 polarization of tumor associated macrophage in spleen at 50 mg/kg, IG administered twice daily for 14 days by flow cytometric analysis; type: functional, organism-based; settings: time 14.0 day
# MC-38 [16] = test: Antitumor immunity against mouse MC-38 cells implanted in syngenic C57BL/6J mouse model assessed as upregulation of PD1 expression in CD8+ T cells at 50 mg/kg, IG administered twice daily for 14 days by flow cytometric analysis; type: functional, organism-based; settings: time 14.0 day
# MC-38 [17] = test: Antitumor immunity against mouse MC-38 cells implanted in syngenic C57BL/6J mouse model assessed as increase in CD8+ T cell proportion in tumor at 50 mg/kg, IG administered twice daily for 14 days by flow cytometric analysis; type: functional, organism-based; settings: time 14.0 day
# [18] = biological target: T1, Tyrosine-protein phosphatase non-receptor type 22 (Homo sapiens) (UniProt Q9Y2R2); test: Reversible binding affinity to N-terminal His-tagged LYP catalytic domain (1 to 294 residues) (unknown origin) expressed in Escherichia coli BL21 (DE3) cells using pNPP as substrate incubated for 10 to 90 mins by absorbance based assay; settings: time 10-90 min
# T1 sequence (whole entry): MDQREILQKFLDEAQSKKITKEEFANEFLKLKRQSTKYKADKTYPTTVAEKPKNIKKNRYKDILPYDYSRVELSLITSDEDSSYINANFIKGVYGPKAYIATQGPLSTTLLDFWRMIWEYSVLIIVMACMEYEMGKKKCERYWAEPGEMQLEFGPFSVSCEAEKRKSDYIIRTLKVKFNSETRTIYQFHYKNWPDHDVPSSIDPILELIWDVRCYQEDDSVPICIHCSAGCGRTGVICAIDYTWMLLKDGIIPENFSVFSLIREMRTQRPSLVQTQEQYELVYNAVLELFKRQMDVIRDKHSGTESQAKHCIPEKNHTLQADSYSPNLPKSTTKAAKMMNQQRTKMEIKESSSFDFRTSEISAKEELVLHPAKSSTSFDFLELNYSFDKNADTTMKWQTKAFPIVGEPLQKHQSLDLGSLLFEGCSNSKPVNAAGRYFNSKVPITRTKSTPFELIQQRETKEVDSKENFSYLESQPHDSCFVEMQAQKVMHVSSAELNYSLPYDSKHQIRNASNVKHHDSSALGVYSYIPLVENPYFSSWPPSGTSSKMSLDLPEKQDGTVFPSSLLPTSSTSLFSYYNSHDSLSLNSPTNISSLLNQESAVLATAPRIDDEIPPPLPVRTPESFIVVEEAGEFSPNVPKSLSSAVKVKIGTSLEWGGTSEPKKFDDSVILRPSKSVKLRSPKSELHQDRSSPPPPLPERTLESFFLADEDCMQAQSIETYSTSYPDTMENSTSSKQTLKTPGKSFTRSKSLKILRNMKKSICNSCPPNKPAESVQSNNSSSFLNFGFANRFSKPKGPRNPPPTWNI
SMILES,Activity (MC-38 [1]),Activity (MC-38 [2]),Activity (MC-38 [3]),Activity (MC-38 [4]),Activity [5],Activity (MC-38 [6]),Activity (MC-38 [7]),Activity (Jurkat T [8]),Activity [9] [%],Activity (Jurkat T [10]),Activity [11] [%],Activity (MC-38 [12]),Activity (MC-38 [13]),Activity (MC-38 [14]),Activity (MC-38 [15]),Activity (MC-38 [16]),Activity (MC-38 [17]),Activity [18]
COc1ccc(-c2ccc(CN(c3ccc4oc(C(=O)O)cc4c3)S(=O)(=O)c3ccc(Cl)c([N+](=O)[O-])c3)cc2)cc1,Active,Active,Active,Active,Non-Toxic,Active,Active,Active,43.6,Active,37.2,Active,Active,Active,Active,Active,Active,–
O=C(O)c1cc2cc(N(Cc3ccc(OCc4ccccc4)cc3)S(=O)(=O)c3ccc(-c4ccccc4)cc3)ccc2o1,Active,Active,Active,Active,Non-Toxic,Active,Active,Active,59.2,Active,46.1,Active,Active,Active,Active,Active,Active,Active

# Reference: ChEMBL document CHEMBL5620412, “Discovery of benzofuran-2-carboxylic acid derivatives as lymphoid tyrosine phosphatase (LYP) inhibitors for cancer immunotherapy” (Eur J Med Chem, 2023)
